Data on seven compounds can be found in DBAASP.

Test systems include Candida albicans MDM8; Escherichia coli SBS 363; Micrococcus luteus A270; Escherichia coli K-12; Bacillus subtilis; Escherichia coli W160-37.
Common to all, as to experiment: ≥ marks a high value that may be exact or a test limit, other limits are often not marked, values filed in µg/mL are converted to µM
Test [1] relates to Bacillus subtilis CMCC 63501.
In test [2] the test system is Escherichia coli CMCC 44102.
For test [3], the system named is Listeria monocytogenes ATCC 19115.
The subject of test [4] is Pseudomonas aeruginosa CMCC 10104.
In test [5] the test system is Staphylococcus aureus CMCC 26003.
Test [6] deals with Bacillus subtilis ATCC 6633.
The test system of test [7] is Micrococcus luteus NCIMB 13267.
In test [8] the test system is Pseudomonas aeruginosa ATCC 27853.
Test [9] has as its system Salmonella typhimurium DA22427.
The test system of test [10] is Salmonella typhimurium DA23899.
For test [11], the system named is Salmonella typhimurium DA6192.
Test [12] has as its system Staphylococcus aureus ATCC 6538.
Test [13] deals with Candida albicans KCTC 7270.
Test [14] has as its system Escherichia coli CCARM 1229.
Test [15] has as its system Escherichia coli CCARM 1238.
The subject of test [16] is Pseudomonas aeruginosa 4007.
The subject of test [17] is Pseudomonas aeruginosa 4891.
The test system of test [18] is Staphylococcus aureus CCARM 3090.
Test [19] deals with Staphylococcus aureus CCARM 3518.
In test [20] the test system is Trichosporon beigelii KCTC 7707.
For test [21], the system named is Aspergillus niger CECT 2694.
Test [22] deals with Erwinia amylovora PMV 6076.
In test [23] the test system is Escherichia coli DH5alpha.
In test [24] the test system is Fusarium oxysporum f. sp. lycopersici ATCC 201829.
For test [25], the system named is Penicillium digitatum PHI-26.
Test [26] deals with Penicillium expansum EPS 26.
The test system of test [27] is Pseudomonas syringae EPS 94.
Test [28] deals with Rhizopus stolonifer CECT 2344.
The subject of test [29] is Saccharomyces cerevisiae FY1679.
The test system of test [30] is Xanthomonas vesicatoria 2133-2.
The test system of test [31] is Pseudomonas putida NCIM 2102.
In test [32] the test system is Staphylococcus aureus 8530.
Test [33] relates to Escherichia coli ATCC 25922.
Test [34] relates to Staphylococcus aureus LAC.

Molecules are shown by their SMILES. Values after ≈ are worked out from the molar mass of the structure shown.

With `CC[C@H](C)[C@H](NC(=O)[C@H](CC(C)C)NC(=O)[C@H](CCCCN)NC(=O)[C@H](CCCN=C(N)N)NC(=O)[C@H](Cc1ccccc1)NC(=O)[C@H](CC(C)C)NC(=O)[C@H](CO)NC(=O)[C@H](CC(C)C)NC(=O)[C@H](CC(C)C)NC(=O)[C@@H](N)CO)C(N)=O` [SLLSLFRKLI], the MIC (as a rule, the lowest concentration found to suppress growth) in the test on Candida albicans MDM8 was found to be 1.56 µM (≈ 1.85 µg/mL); against Escherichia coli SBS 363 it was 3.12 µM (≈ 3.71 µg/mL); in the test on Micrococcus luteus A270, 1.56 µM (≈ 1.85 µg/mL).

For the compound `CC[C@H](C)[C@H](NC(=O)[C@H](CCCN=C(N)N)NC(=O)[C@H](CCCN=C(N)N)NC(=O)[C@H](Cc1c[nH]c2ccccc12)NC(=O)[C@@H](N)Cc1ccccc1)C(=O)N[C@@H](CCCN=C(N)N)C(=O)N[C@H](C(=O)N[C@H](C(=O)N1CCC[C@H]1C(=O)N[C@H](C(=O)N[C@H](C(=O)N[C@@H](CC(N)=O)C(=O)N1CCC[C@H]1C(=O)N[C@@H](Cc1c[nH]c2ccccc12)C(=O)N[C@@H](Cc1ccccc1)C(=O)N[C@@H](CC(C)C)C(=O)N[C@@H](CCC(N)=O)C(=O)N[C@@H](CCC(N)=O)C(=O)N[C@H](C(N)=O)[C@@H](C)O)C(C)C)C(C)C)[C@@H](C)O)C(C)C` [FWRRIRVTPVVNPWFLQQT], the minimal inhibitory concentration (MIC) in test [1] was 26.2 µM (≈ 64 µg/mL); in [2], no less than 105 µM; in test [3], 13.1 µM (≈ 32 µg/mL); in [4] it was no less than 105 µM; in test [5] it was 13.1 µM (≈ 32 µg/mL).

Take `CC[C@H](C)[C@H](NC(=O)CNC(=O)[C@H](CC(N)=O)NC(=O)[C@H](CCCN=C(N)N)NC(=O)[C@@H](NC(=O)[C@H](CC(N)=O)NC(=O)[C@H](CCCN=C(N)N)NC(=O)CNC(=O)[C@H](CCSC)NC(=O)[C@H](CCCCN)NC(=O)[C@H](CCC(=O)O)NC(=O)[C@@H](NC(=O)[C@H](CCCCN)NC(=O)[C@H](CCCCN)NC(=O)[C@H](Cc1ccccc1)NC(=O)[C@@H](NC(=O)[C@H](CCCCN)NC(=O)[C@H](Cc1c[nH]c2ccccc12)NC(=O)[C@@H](N)CCCCN)C(C)C)[C@@H](C)CC)[C@@H](C)CC)C(=O)N[C@H](C(=O)N[C@@H](CCCCN)C(N)=O)C(C)C` [KWKVFKKIEKMGRNIRNGIVK]: the MIC in test [6] was found to be 5 µM (≈ 12.9 µg/mL); against Escherichia coli K-12, 6 µM (≈ 15.4 µg/mL); in [7] it was 1 µM (≈ 2.57 µg/mL); in [8], 1.5 µM (≈ 3.86 µg/mL); in test [9], 12 µM (≈ 30.9 µg/mL); in test [10], 25 µM (≈ 64.3 µg/mL). The MIC in test [11] was 12 µM (≈ 30.9 µg/mL); in [12], greater than 100 µM.

As for `CC[C@H](C)[C@H](NC(=O)[C@H](C)NC(=O)[C@H](CCC(=O)O)NC(=O)[C@H](Cc1cnc[nH]1)NC(=O)[C@@H](NC(=O)[C@H](CCCCN)NC(=O)[C@H](CCC(N)=O)NC(=O)[C@H](Cc1ccccc1)NC(=O)[C@@H](NC(=O)[C@H](CCCCN)NC(=O)[C@H](CCCCN)NC(=O)[C@H](CC(C)C)NC(=O)[C@H](C)NC(=O)[C@H](CC(N)=O)NC(=O)[C@H](CC(C)C)NC(=O)CN)C(C)C)[C@@H](C)CC)C(=O)N[C@@H](CCCCN)C(=O)N[C@@H](CC(C)C)C(=O)N[C@H](C(=O)N[C@@H](CC(N)=O)C(=O)N[C@@H](CC(N)=O)C(=O)N[C@@H](Cc1cnc[nH]1)C(=O)N[C@H](C(=O)N[C@@H](CCC(N)=O)C(N)=O)C(C)C)[C@@H](C)CC` [GLNALKKVFQKIHEAIKLINNHVQ], the minimal inhibitory concentration (MIC) was no less than 32 µM in test [13]; 2 µM (≈ 5.51 µg/mL) in [14]; 2 µM (≈ 5.51 µg/mL) in test [15]; 2 µM (≈ 5.51 µg/mL) in test [16]; 4 µM (≈ 11 µg/mL) in test [17]; 4 µM (≈ 11 µg/mL) in [18]. The minimum inhibitory concentration (MIC) in [19] is 4 µM (≈ 11 µg/mL); in test [20], no less than 32 µM.

Take `CC[C@H](C)[C@H](NC(=O)[C@H](CCCCN)NC(=O)[C@H](CCCCN)NC(=O)[C@H](Cc1ccccc1)NC(=O)[C@H](CC(C)C)NC(=O)[C@H](CCCCN)NC(=O)[C@@H](N)CCCCN)C(=O)N[C@@H](CC(C)C)C(=O)N[C@@H](CCCCN)C(=O)N[C@H](C(=O)N[C@@H](CC(C)C)C(N)=O)C(C)C` [KKLFKKILKVL]: the MIC in [21] came to 6.12 µM (≈ 8.31 µg/mL); in test [22] it was 5.92 µM (≈ 8.03 µg/mL); in [23] it was 4 µM (≈ 5.43 µg/mL); in test [24], 0.849 µM (≈ 1.15 µg/mL); in test [25], 4 µM (≈ 5.43 µg/mL); in test [26], 13.7 µM (≈ 18.6 µg/mL). Further, the minimal inhibitory concentration (MIC) turned out to be 3.16 µM (≈ 4.29 µg/mL) in [27], 8.66 µM (≈ 11.8 µg/mL) in test [28], 16 µM (≈ 21.7 µg/mL) in test [29] and 13.4 µM (≈ 18.2 µg/mL) in test [30].

On to `CC[C@H](C)[C@H](NC(=O)[C@H](CC(C)C)NC(=O)[C@H](C)NC(=O)[C@@H]1CCCN1C(=O)[C@H](CC(C)C)NC(=O)CN)C(=O)N[C@@H](CO)C(=O)N[C@@H](Cc1c[nH]c2ccccc12)C(=O)N[C@H](C(=O)N[C@@H](CCCCN)C(=O)N[C@@H](CCCN=C(N)N)C(=O)N[C@@H](CCCCN)C(=O)N[C@@H](CCCN=C(N)N)C(=O)N[C@@H](CCC(N)=O)C(=O)N[C@@H](CCC(N)=O)C(=O)NCC(N)=O)[C@@H](C)CC` [GLPALISWIKRKRQQG], for which the MIC was 10.5 µM (≈ 19.4 µg/mL) in the test on Bacillus subtilis, 21.4 µM (≈ 39.7 µg/mL) against Escherichia coli W160-37, no less than 108 µM in test [31] and 16 µM (≈ 29.6 µg/mL) in test [32].

For `NC(N)=NCCC[C@H](NC(=O)[C@H](CCCN=C(N)N)NC(=O)[C@H](CCCN=C(N)N)NC(=O)[C@H](CCCN=C(N)N)NC(=O)[C@H](Cc1ccccc1)NC(=O)[C@H](Cc1ccccc1)NC(=O)[C@H](Cc1ccccc1)NC(=O)[C@@H](N)Cc1ccccc1)C(=O)O` [FFFFRRRR], the MIC in test [33] was greater than 104 µM; in test [34], no less than 104 µM.
